In patent publication US11427526B2, “Method of preparing hydroxytyrosol cinnamic acid ester with antioxidant and antibacterial activities” (XI'AN KANGYUANSHENG BIOMEDICAL TECHNOLOGY CO., LTD., priority 2020, dated 2022):
In brackets after ≈: the same amount, converted by molar mass.

Tests used:
[1] = test system: multidrug-resistant Pseudomonas aeruginosa MDR-PA 18-174; assay: MIC by microbroth dilution, MDR-PA 18-174; format: cell-based; settings: for Minimum bacteriostatic concentration: strain MDR-PA 18-174
Procedure: (§1) The minimal inhibitory concentrations (MIC) of the compounds were determined by microbroth dilution method with gentamicin, cefazolin sodium and ceftriaxone sodium as positive control.
(§2) The experimental strains included methicillin-resistant Gram-positive bacteria: methicillin-resistant Straphylococcus aureus MRSA 18-222, 18-575; multiple drug-resistant Gram-negative bacteria: vancomycin-resistant Enterococci VRE 18-80, 18-94, multidrug-resistant Pseudomonas aeruginosa MDR-PA 18-1774, 18-202, carbapenem-resistant Acinetobacter baumannii CR-AB 18-183, 18-560. All the experimental strains were donated by Huashan Hospital affiliated to Fudan University (Institute of antibiotics, Fudan University) and used after routine identification.
(§3) Preparation of MHB medium: 20.0 g MHB medium was added to 1 L distilled water, boiled until completely dissolved, packed in conical bottles and sterilized at 121° C. for 15 min.
(§4) The experimental strain was cultured to the logarithmic growth phase: under aseptic condition, the experimental strain was inoculated into 100 mL MHB medium and incubated in a constant temperature and humidity incubator at 37° C. for 20-22 hours.
(§5) Preparation of storage solution: weighing the sample to be tested, dissolving it with 1% DMSO solution, preparing a storage solution with a concentration of 2560 μg/mL, weighing a positive reference substance, dissolving it with aseptic distilled water, and configuring a storage solution with a concentration of 2560 μg/mL.
(§6) Preparation of bacterial suspension: under aseptic condition, the experimental strains cultured to logarithmic growth phase were adjusted to 0.5 MCF turbidity standard with MHB medium and diluted according to 1:10, and the bacterial suspension with concentration of 10^6 CFU/mL was prepared for standby.
(§7) Dilution of storage solution and inoculation of experimental strain: under aseptic condition, the storage solution was diluted to 256 μg/mL solution. Taking a sterile 96-well plate, adding 200 μL MHB medium to the 12th well, and adding 100 μL MHB medium to each well. Adding 100 μL of positive control solution to the first well, mixing well, and taking 100 μL and discard. Adding 100 μL of the compound sample solution to the second well, mixing well, and then pipetting 100 μL to the third well. After mixing, pipetting 100 μL to the fourth well, and diluting to the 11th well in the same way. Finally, 100 μL was pipetted from the 11th well and discarded. The 12th hole was the growth control without drugs. The concentration of the positive reference substance was 128 μg/mL, the concentrations of the sample solution were 128, 64, […] respectively. Then, 100 μL of the prepared bacterial suspension was added to each well, so that the final concentration of the bacterial liquid in each well was 5×10^5 CFU/mL.
(§8) Incubation: Covering the 96-well plate inoculated with the experimental strains, and incubating in a constant temperature and humidity box at 37° C. for 20-22 hours.

[2] = test system: vancomycin-resistant Enterococci VRE 18-80; assay: MIC by microbroth dilution, VRE 18-80; format: cell-based; settings: strain VRE 18-80
Procedure: as §1, §2, §3, §4, §5, §6, §7, §8

[3] = test system: multidrug-resistant Pseudomonas aeruginosa MDR-PA 18-202; assay: MIC by microbroth dilution, MDR-PA 18-202; format: cell-based; settings: strain MDR-PA 18-202
Procedure: as §1, §2, §3, §4, §5, §6, §7, §8

[4] = test system: carbapenem-resistant Acinetobacter baumannii CR-AB 18-560; assay: MIC by microbroth dilution, CR-AB 18-560; format: cell-based; settings: strain CR-AB 18-560
Procedure: as §1, §2, §3, §4, §5, §6, §7, §8

[5] = test system: methicillin-resistant Straphylococcus aureus MRSA 18-575; assay: MIC by microbroth dilution, MRSA 18-575; format: cell-based; settings: strain MRSA 18-575
Procedure: as §1, §2, §3, §4, §5, §6, §7, §8

[6] = test system: methicillin-resistant Straphylococcus aureus MRSA 18-222; assay: MIC by microbroth dilution, MRSA 18-222; format: cell-based; settings: for Minimum bacteriostatic concentration: strain MRSA 18-222
Procedure: as §1, §2, §3, §4, §5, §6, §7, §8

[7] = test system: carbapenem-resistant Acinetobacter baumannii CR-AB 18-183; assay: MIC by microbroth dilution, CR-AB 18-183; format: cell-based; settings: strain CR-AB 18-183
Procedure: as §1, §2, §3, §4, §5, §6, §7, §8

[8] = test system: vancomycin-resistant Enterococci VRE 18-94; assay: MIC by microbroth dilution, VRE 18-94; format: cell-based; settings: strain VRE 18-94
Procedure: as §1, §2, §3, §4, §5, §6, §7, §8

[9] = DPPH radical scavenging activity assay; settings: for DPPH clearance rate: n = 3
Procedure: The antioxidant activity of the hydroxytyrosol cinnamic acid ester was measured by a DPPH radical scavenging activity assay. 2,2-Diphenyl-1-picryl hydrazyl (DPPH) is an organic compound composed of a stable organic radical. In the DPPH molecule, due to the presence of multiple electron-withdrawing —NO2 and large π bonds of the benzene ring, nitrogen free radical is stabilized. Its methanol solution is purple and has a maximum absorption peak at 517 nm. After the addition of an antioxidant, DPPH captures an electron to be paired with the free electron, and the purple fades and turns into a yellow substance. The absorption at 517 nm disappears, and the degree of fading is quantitatively related to the number of electrons it captures. Based on this principle, a spectrophotometer is used to detect the change of the absorbance of the DPPH radical and the sample solution, and the ability of the sample to provide hydrogen atoms and scavenge free radicals can be measured. measuring exact amount of 2,2-diphenyl-1-picryl hydrazyl (DPPH) and dissolving in toluene to prepare a 0.2 mmoL/L DPPH solution, stored at 0° C. in dark. Vc (positive control), hydroxytyrosol cinnamic acid ester (sample), hydroxytyrosol (control) and cinnamic acid (control). The sample solution was subjected to gradient dilution with toluene, and three sets of controls were separately dissolved in a test tube with a certain amount of toluene to prepare the same concentration gradient as the sample. Sample liquid absorbance measurement: Take 2 mL of sample solution (Table 1 Vc, B, C), add 2 mL of DPPH solution with concentration of 2×10^−4 moL/L, mix and react in the dark at room temperature for 30 min, adjust to zero with toluene, and measure at 517 nm. The absorbance Ai was simultaneously measured for the absorbance Aj of 2 mL of toluene mixed with 2 mL of the sample solution and the absorbance Ao of 2 mL of DPPH solution mixed with 2 mL of toluene (The experimental results are shown in Table 2). Clearance calculation: Clearance Rate (%)=[1−(Ai−Aj)/Ao]*100%

drug-resistant bacteria = assay: Antibacterial activity test, summary over all experimental strains; format: cell-based; settings: text summary of FIGS. 2-3 and Table 4
Procedure: as §1, §2, §3
The experimental strain was cultured to the logarithmic growth phase: under aseptic condition, the experimental strain was inoculated into 100 mL MHB medium and incubated in a constant temperature and humidity incubator at 37° C. for 20-22 hours. […]

Compound	Minimum bacteriostatic concentration [1]	Minimum bacteriostatic concentration [2]	Minimum bacteriostatic concentration [3]	Minimum bacteriostatic concentration [4]	Minimum bacteriostatic concentration [5]	Minimum bacteriostatic concentration [6]	Minimum bacteriostatic concentration [7]	Minimum bacteriostatic concentration [8]	DPPH clearance rate ([9]; 1.76 ppm)	DPPH clearance rate ([9]; 8.80 ppm)	DPPH clearance rate ([9]; 21.12 ppm)	DPPH clearance rate ([9]; 42.24 ppm)	DPPH clearance rate ([9]; 79.20 ppm)	DPPH clearance rate ([9]; 112.64 ppm)	DPPH clearance rate ([9]; 281.60 ppm)	DPPH clearance rate ([9]; 492.80 ppm)	DPPH clearance rate ([9]; 792.00 ppm)	DPPH clearance rate ([9]; 915.20 ppm)	also measured
Gentamicin	0.0625 µg/mL	0.0625 µg/mL	0.0625 µg/mL	>128 µg/mL	2 µg/mL	128 µg/mL	>128 µg/mL	>128 µg/mL											
Cc1nnc(SCC2=C(C(=O)O)N3C(=O)[C@@H](NC(=O)Cn4cnnn4)[C@H]3SC2)s1 [Cefazolin sodium]	8 µg/mL	32 µg/mL	128 µg/mL	>128 µg/mL	>128 µg/mL	>128 µg/mL	>128 µg/mL	>128 µg/mL											
CO/N=C(\C(=O)N[C@@H]1C(=O)N2C(C(=O)O)=C(CSc3nc(=O)c(=O)[nH]n3C)CS[C@H]12)c1csc(N)n1 [Ceftriaxone sodium]	128 µg/mL	8 µg/mL	16 µg/mL	>128 µg/mL	>128 µg/mL	>128 µg/mL	>128 µg/mL	>128 µg/mL											
O=C(/C=C\c1ccccc1)OCCc1ccc(O)c(O)c1 [Hydroxytyrosol cinnamic acid ester, (Z)-3,4-Dihydroxyphenethyl 3-Phenylacrylate]	64 µg/mL	>128 µg/mL	>128 µg/mL	>128 µg/mL	>128 µg/mL	32 µg/mL	>128 µg/mL	>128 µg/mL	0.56%	16.52%	31.75%	43.52%	55.11%	68.53%	76.22%	80.95%	84.32%	85.03%	MIC ([1]; multi-drug resistant Pseudomonas aeruginosa MDR-PA (text summary, strain number not given)): 64 µg/mL (≈ 225 µM); MIC ([6]; Staphylococcus aureus, multi-drug resistant Straphylococcus aureus MRSA (text summary, strain number not given)): 32 µg/mL (≈ 113 µM); antioxidant activity [9]: excellent antioxidant activity
OCCc1ccc(O)c(O)c1 [Hydroxytyrosol]	>128 µg/mL	>128 µg/mL	>128 µg/mL	>128 µg/mL	>128 µg/mL	>128 µg/mL	>128 µg/mL	>128 µg/mL											inhibitory effect on drug-resistant bacteria (drug-resistant bacteria): no inhibitory effect
O=C1O[C@H]([C@@H](O)CO)C(O)=C1O [Vc]									23.16%	33.47%	79.63%	89.55%	97.42%	97.53%	98.29%	99.06%	99.10%	99.28%	
O=C(O)C=Cc1ccccc1 [Cinnamic acid]	>128 µg/mL	>128 µg/mL	>128 µg/mL	>128 µg/mL	>128 µg/mL	>128 µg/mL	>128 µg/mL	>128 µg/mL	6.45%	8.20%	14.52%	20.33%	31.75%	38.62%	54.12%	59.60%	70.53%	71.89%	inhibitory effect on drug-resistant bacteria (drug-resistant bacteria): no inhibitory effect
